# Experimental data from US11840686B2, “Modulation of prekallikrein (PKK) expression” (Ionis Pharmaceuticals, Inc., priority 2013, dated 2023).
# Strand notation (5' to 3'): a small letter for the sugar, then the base; units joined by * are phosphorothioate-linked, units joined directly phosphodiester-linked; [ ] holds rarer units or linkages, { } end groups; capitals alone tell only the bases. e = 2'-O-(2-methoxyethyl) (MOE); k = constrained ethyl (cEt); [5mC] = 5-methylcytosine; d = 2'-deoxy (DNA)
# Key:
# Format in all cases: cell-based
# human PKK mRNA [1] = experiment: Antisense inhibition of human PKK mRNA in HepaRG cells, 3,000 nM (Example 1); conditions: PKK mRNA, HepaRG cells, 3,000 nM, electroporation, ~24 h, relative to untreated control cells
# Description: Antisense oligonucleotides were designed targeting a PKK nucleic acid and were tested for their effects on PKK mRNA in vitro. HepaRG™ cells, which are terminally differentiated hepatic cells derived from a human hepatic progenitor cell line and retain many characteristics of primary human hepatocytes (Lubberstedt M. et al., J. Pharmacol. Toxicol. Methods 2011 63: 59-68), were used in the screen.
# The chimeric antisense oligonucleotides in the tables below were designed as 5-10-5 MOE gapmers. The gapmers are 20 nucleosides in length, wherein the central gap segment comprises of ten 2′-deoxynucleosides and is flanked by wing segments on the 5′ direction and the 3′ direction comprising five nucleosides each. Each nucleoside in the 5′ wing segment and each nucleoside in the 3′ wing segment has a 2′-O-methoxyethyl modification. The internucleoside linkages throughout each gapmer are phosphorothioate linkages. All cytosine residues throughout each gapmer are 5-methylcytosines. “Start site” indicates the 5′-most nucleoside to which the gapmer is targeted in the human gene sequence. “Stop site” indicates the 3′-most nucleoside to which the gapmer is targeted in the human gene sequence.
# Cultured HepaRG™ cells at a density of 20,000 cells per well were transfected using electroporation with 3,000 nM antisense oligonucleotide. After a treatment period of approximately 24 hours, RNA was isolated from the cells and PKK mRNA levels were measured by quantitative real-time PCR. Human primer probe set RTS3454 (forward sequence […], designated herein as SEQ ID NO: 20; reverse sequence […], designated herein as SEQ ID NO: 21; probe sequence […], designated herein as SEQ ID NO: 22) was used to measure mRNA levels. PKK mRNA levels were adjusted according to total RNA content, as measured by RIBOGREEN®. The antisense oligonucleotides were tested in a series of experiments that had similar culture conditions. Results are presented as percent inhibition of PKK, relative to untreated control cells.
# human PKK mRNA [2] = experiment: Antisense inhibition of human PKK mRNA in HepaRG cells, 1,000 nM, MOE/deoxy/cEt oligonucleotides (Example 3); conditions: HepaRG cells, 1,000 nM antisense oligonucleotide
# Procedure, shortened: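 Readout is percent PKK mRNA reduction against untreated controls, by real-time PCR (RTS3454) adjusted for total RNA via RIBOGREEN. Oligonucleotides, phosphorothioate gapmers of 16 nucleosides with cEt, MOE and deoxy sugars, were delivered at 1,000 nM by electroporation to 20,000 HepaRG cells/well for roughly 24 h.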
# human PKK mRNA [3] = experiment: Dose-dependent antisense inhibition of human PKK in HepaRG cells, 0.11-3.00 uM (Example 6); conditions: for IC50: 0.11-3.00 μM; for percent inhibition of PKK mRNA, 0.11 μM / percent inhibition of PKK mRNA, 0.33 μM / percent inhibition of PKK mRNA, 1.00 μM / percent inhibition of PKK mRNA, 3.00 μM: electroporation, approx. 16 hours, relative to untreated control cells
# Procedure, shortened: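 Antisense oligonucleotides were tested over 0.11–3.00 μM, delivered by electroporation, with readout after roughly 16 h. Human PKK transcript was measured by real-time PCR (set RTS3454) and adjusted to RIBOGREEN total RNA, giving half-maximal inhibitory concentrations.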
Substance,% inhibition (human PKK mRNA [1]; Table 1),% inhibition (human PKK mRNA [1]; Table 2),"% inhibition (human PKK mRNA [2]; Table 27, human PKK mRNA)",IC50 (human PKK mRNA [3]),"percent inhibition of PKK mRNA, 0.11 μM (human PKK mRNA [3])","percent inhibition of PKK mRNA, 0.33 μM (human PKK mRNA [3])","percent inhibition of PKK mRNA, 1.00 μM (human PKK mRNA [3])","percent inhibition of PKK mRNA, 3.00 μM (human PKK mRNA [3])","% inhibition (human PKK mRNA [2]; Table 30, human PKK mRNA)","% inhibition (human PKK mRNA [2]; Table 28, human PKK mRNA)",% inhibition (human PKK mRNA [2]; Table 29),"% inhibition (human PKK mRNA [2]; PKK mRNA, Table 31)"
30929 (antisense eA*eA*e[5mC]*eG*eG*dT*d[5mC]*dT*dT*d[5mC]*dA*dA*dG*d[5mC]*dT*eG*eT*eT*e[5mC]*eT) [compound 30929],59%,–,–,–,–,–,–,–,–,–,–,–
482586 (antisense eA*e[5mC]*e[5mC]*e[5mC]*eA*dA*d[5mC]*dA*dG*dT*dT*dG*dG*dT*dA*eT*eA*eA*eA*eT) [compound 482586],–,0%,–,–,–,–,–,–,–,–,–,–
530930 (antisense eA*eA*eA*eT*eG*dA*dA*d[5mC]*dG*dG*dT*d[5mC]*dT*dT*d[5mC]*eA*eA*eG*e[5mC]*eT) [compound 530930],17%,–,–,–,–,–,–,–,–,–,–,–
530931 (antisense e[5mC]*eT*eT*eA*eA*dA*dA*dA*dT*dG*dA*dA*d[5mC]*dG*dG*eT*e[5mC]*eT*eT*e[5mC]) [compound 530931],29%,–,–,–,–,–,–,–,–,–,–,–
548338 (antisense eA*eT*kG*dA*dA*dA*d[5mC]*dT*dG*dT*dG*dG*d[5mC]*kT*k[5mC]*eG) [compound 548338],–,–,80%,200 nM,41%,58%,79%,95%,–,–,–,–
548343 (antisense eT*eA*kG*dT*dG*dA*dT*dA*dA*dG*dA*dG*d[5mC]*kT*kG*eG) [compound 548343],–,–,78%,–,61%,67%,88%,92%,–,–,–,–
548348 (antisense eT*eG*kA*dG*dT*dG*dA*dT*dG*d[5mC]*d[5mC]*dT*dT*k[5mC]*k[5mC]*eA) [compound 548348],–,–,82%,400 nM,19%,46%,67%,91%,–,–,–,–
548409 (antisense eG*eT*kA*dT*d[5mC]*dA*d[5mC]*dT*dG*dT*dA*d[5mC]*dT*kA*kG*eT) [compound 548409],–,–,–,300 nM,21%,60%,90%,93%,81%,–,–,–
548410 (antisense eA*eG*kT*dA*dT*d[5mC]*dA*d[5mC]*dT*dG*dT*dA*d[5mC]*kT*kA*eG) [compound 548410],–,–,–,200 nM,31%,58%,85%,82%,85%,–,–,–
548422 (antisense eG*eT*kA*dT*d[5mC]*dA*d[5mC]*dT*dG*dT*d[5mC]*d[5mC]*dT*kA*kT*eA) [compound 548422],–,–,–,700 nM,0%,32%,71%,93%,69%,–,–,–
548424 (antisense e[5mC]*eA*kG*dT*dA*dT*d[5mC]*dA*d[5mC]*dT*dG*dT*d[5mC]*k[5mC]*kT*eA) [compound 548424],–,–,–,300 nM,17%,67%,86%,72%,90%,–,–,–
548425 (antisense eA*eA*k[5mC]*dA*dG*dT*dA*dT*d[5mC]*dA*d[5mC]*dT*dG*kT*k[5mC]*e[5mC]) [compound 548425],–,–,–,200 nM,41%,57%,68%,80%,90%,–,–,–
548479 (eA*eG*kG*d[5mC]*d[5mC]*dA*dT*dT*dT*dG*dA*dT*d[5mC]*k[5mC]*kG*eA; antisense) [compound 548479],–,–,–,400 nM,2%,52%,82%,97%,–,68%,–,–
548486 (e[5mC]*eG*kT*dG*dG*dT*dT*dA*dG*d[5mC]*d[5mC]*dT*dG*kA*k[5mC]*eA; antisense) [compound 548486],–,–,–,400 nM,20%,48%,77%,92%,–,68%,–,–
548521 (antisense e[5mC]*eA*kG*d[5mC]*dT*d[5mC]*d[5mC]*d[5mC]*dT*dT*dA*d[5mC]*dT*kA*kG*eG) [compound 548521],–,–,–,> 3000 nM,21%,0%,3%,1%,–,61%,–,–
548547 (antisense eG*eT*kG*d[5mC]*dG*dA*dT*dT*dA*dA*dG*d[5mC]*d[5mC]*k[5mC]*k[5mC]*eA) [compound 548547],–,–,–,400 nM,30%,41%,76%,90%,–,–,86%,–
548557 (antisense eG*eT*kT*dA*d[5mC]*dT*d[5mC]*dT*dG*dT*dG*dA*dT*k[5mC]*k[5mC]*eA) [compound 548557],–,–,–,400 nM,5%,47%,82%,95%,–,–,81%,–
548558 (antisense eA*eA*k[5mC]*dA*dT*dT*dG*dT*dG*dT*dA*dG*d[5mC]*kT*kG*e[5mC]) [compound 548558],–,–,–,–,53%,61%,78%,95%,–,–,75%,–
548570 (eA*eT*kG*d[5mC]*d[5mC]*dT*dT*dG*dT*dG*d[5mC]*d[5mC]*dT*kA*kT*eT; antisense) [compound 548570],–,–,–,400 nM,20%,40%,70%,94%,–,–,74%,–
548583 (eG*eG*kG*dA*dA*dT*dT*dT*dA*dT*dG*d[5mC]*dT*kG*k[5mC]*e[5mC]; antisense) [compound 548583],–,–,–,200 nM,43%,46%,93%,88%,–,–,79%,–
548655 (antisense e[5mC]*e[5mC]*k[5mC]*dG*dA*dG*dG*dT*d[5mC]*dA*d[5mC]*dA*dT*kA*kA*eT) [compound 548655],–,–,–,> 3000 nM,0%,0%,8%,33%,–,–,–,56%
548667 (antisense eT*eG*kG*d[5mC]*dA*dA*dG*d[5mC]*dT*dA*d[5mC]*d[5mC]*dT*kT*k[5mC]*eT) [compound 548667],–,–,–,700 nM,0%,37%,73%,86%,–,–,–,51%
548668 (antisense eG*eG*kG*dA*dG*d[5mC]*dT*dT*dT*d[5mC]*dA*dT*dG*kG*k[5mC]*eT) [compound 548668],–,–,–,700 nM,10%,30%,61%,84%,–,–,–,68%
